Source: patent publication US9944969B2, “Devices, systems and methods for detecting viable infectious agents in a fluid sample” (eSense, LLC, priority 2015, dated 2018)

Columns and labels:
[1] = tested on: Staphylococcus saprophyticus; experiment: pH change of sample effluent after exposure of Staphylococcus saprophyticus to anti-infective (ISFET sensor system, FIG. 10); format: cell-based; details: Staphylococcus saprophyticus from fluid sample; pH of sample effluent 60 minutes after exposure
Text: In these examples, Staphylococcus saprophyticus can be one of the infectious agents 102 present in the fluid sample 124 applied or introduced to the system 100.

E. coli = experiment: pH change of sample effluent after exposure of E. coli to anti-infective (ISFET sensor system, FIG. 9); format: cell-based; details: for concentration of anti-infective to which the E. coli is resistant (change in pH): E. coli from fluid sample, pH of sample effluent 60 minutes after exposure
Text: FIG. 9 illustrates experimental results of experiments conducted using the methods and system 100 described herein. The graphs in FIG. 9 show a change in the solution characteristic 136 of the measured liquid 402, such as the sample effluent 134, monitored by the system 100 at a specific point in time. In this case, the graphs in FIG. 9 show the change in the solution characteristic 136 of the measured liquid 402 sixty (60) minutes after an anti-infective 104 is introduced to the filter 110, the substrate wells 200, or a combination thereof comprising the infectious agent 102.
In this example, E. coli can be one of the infectious agents 102 present in the fluid sample 124 applied or introduced to the system 100. […] An insignificant change in the solution characteristic 136 can be a change below a statistically significant percentage or threshold value.

Compound	concentration of anti-infective to which the Staphylococcus saprophyticus is resistant (change in pH) [1]	concentration of anti-infective to which the E. coli is resistant (change in pH) (E. coli)	MIC (E. coli; Escherichia coli, 1 h, read-out: minimal inhibitory concentration (MIC))	concentration of anti-infective at which the Staphylococcus saprophyticus is susceptible [1]
CC1(C)S[C@@H]2[C@H](NC(=O)[C@H](N)c3ccccc3)C(=O)N2[C@H]1C(=O)O [ampicillin]	up to 50 μg/ml			
O=C(O)c1cn(C2CC2)c2cc(N3CCNCC3)c(F)cc2c1=O [ciprofloxacin]		approximately 0.1 μg/ml		
O=C1CN(/N=C/c2ccc([N+](=O)[O-])o2)C(=O)N1 [nitrofurantoin]	approximately 1 μg/ml	approximately 1 μg/ml	1 µg/mL	higher than 1 μg/ml
